The target in series [1] is T1, C-X-C chemokine receptor type 3 (Homo sapiens, UniProt P49682).
T1 sequence (P49682 whole entry): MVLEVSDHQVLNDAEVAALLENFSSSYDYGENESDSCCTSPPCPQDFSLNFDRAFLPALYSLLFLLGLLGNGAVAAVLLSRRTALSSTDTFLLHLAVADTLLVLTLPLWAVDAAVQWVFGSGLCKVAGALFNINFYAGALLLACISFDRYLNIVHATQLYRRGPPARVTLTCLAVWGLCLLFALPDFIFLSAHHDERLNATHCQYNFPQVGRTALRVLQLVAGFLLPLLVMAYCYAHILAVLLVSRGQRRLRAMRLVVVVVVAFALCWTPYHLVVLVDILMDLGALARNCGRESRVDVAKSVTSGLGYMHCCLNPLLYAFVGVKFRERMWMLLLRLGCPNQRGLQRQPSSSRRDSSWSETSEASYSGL
The series can be described thus: Displacement of [125I]IP-10 from CXCR3 receptor expressed in human PBMC in RPMI-1640 buffer supplemented with 0.5% BSA.

The target in series [2] is T1, C-X-C chemokine receptor type 3. Kind of series: Displacement of [125I]IP-10 from CXCR3 receptor expressed in human PBMC in EDTA-anti-coagulated human plasma.
The nature of series [3]: Clearance in rat at 0.5 mg/kg, iv. Format: ADME, organism-based. Set-up: dose 0.5 mg/kg, route intravenous. The settings on record: in vivo.
Series [4] is described as follows: Oral bioavailability in rat at 2 mg/kg. Format: ADME, organism-based. The note with it: in vivo.
A short description of series [5]: Mean residence time in rat at 0.5 mg/kg, iv. Format: ADME, organism-based. Set-up: dose 0.5 mg/kg, route intravenous. The note with it: in vivo.

The structures appear in SMILES notation. pIC50, pKi: −log10 of the molar value.

For the compound `CCS(=O)(=O)CCN(C(=O)Cc1ccc(F)c(C(F)(F)F)c1)[C@H](C)c1nc2ncccc2cc1-c1ccc(C#N)cc1`, the pIC50 was 8.70 in series [1] and 7.57 in series [2]. Also, the clearance in series [3] is 39.7 mL/min/kg. This compound returned a bioavailability in series [4] of 31%. This compound also came in with an MRT in series [5] of 22.2 min.
With `CCS(=O)(=O)CCN(C(=O)Cc1ccc(F)c(C(F)(F)F)c1)[C@H](C)c1nc2c(c(=O)n1-c1ccc(C#N)cc1)CCCN2C`, the pIC50 in series [1] is 8.40; in series [2], 7.22. The clearance in series [3] was 63 mL/min/kg. Further, the MRT in series [5] turned out to be 21 min.
`CCS(=O)(=O)CCN(C(=O)Cc1ccc(F)c(C(F)(F)F)c1)[C@H](C)c1nc2ncccc2c(=O)n1-c1ccc(C#N)cc1` gave a clearance in series [3] of 39.7 mL/min/kg. For the same compound, the bioavailability in series [4] turned out to be 47%. This compound also yielded an MRT in series [5] of 31.8 min.
As to `CCS(=O)(=O)CCN(C(=O)Cc1ccc(F)c(C(F)(F)F)c1)[C@H](C)c1nc2ccccc2nc1-c1ccc(C#N)cc1`, the pIC50 in series [1] was 8.05; in series [2], 6.92.
As for `CCS(=O)(=O)CCN(C(=O)Cc1ccc(F)c(C(F)(F)F)c1)[C@H](C)c1nc2ccccc2cc1-c1ccc(C#N)cc1`, the results for the pIC50 in series [1] and in series [2] were 9.10 and 7.68, respectively. Further, in series [3], the clearance is 42.2 mL/min/kg. In addition, the bioavailability in series [4] is 17%. In series [5], this compound displayed an MRT of 90 min.
In the case of `CCS(=O)(=O)CCN(C(=O)Cc1ccc(F)c(C(F)(F)F)c1)[C@H](C)c1nn2ccccc2c1-c1ccc(C#N)cc1`, the pIC50 in series [1] was 7.74; in series [2], 6.28.
In series [1], `CCS(=O)(=O)CCN(C(=O)Cc1ccc(F)c(C(F)(F)F)c1)[C@H](C)c1nc2ccccn2c1-c1ccc(C#N)cc1` gave a pKi of 8.52. In series [2], this compound had a pIC50 of 7.68. Further, in series [3], the clearance was 36.3 mL/min/kg. In series [4], this compound came in with a bioavailability of 24%. In series [5], this compound showed an MRT of 15.6 min.
With `CCS(=O)(=O)CCN(C(=O)Cc1ccc(F)c(C(F)(F)F)c1)[C@H](C)c1cc2ccccc2nc1-c1ccc(C#N)cc1`, the results for the pIC50 in series [1] and in series [2] were 8.30 and 6.94, respectively.
`CCS(=O)(=O)CCN(C(=O)Cc1ccc(F)c(C(F)(F)F)c1)[C@H](C)c1nc2ccccn2c(=O)c1-c1ccc(C#N)cc1` had a clearance in series [3] of 4 mL/min/kg. In addition, the bioavailability in series [4] turned out to be 24%. The compound further came in with an MRT in series [5] of 84 min.
As to `CCS(=O)(=O)CCN(C(=O)Cc1ccc(F)c(C(F)(F)F)c1)[C@H](C)c1nc2ccccc2n1-c1ccc(C#N)cc1`, the results for the pIC50 in series [1] and in series [2] were 8.22 and 7.46, respectively.
`CCS(=O)(=O)CCN(C(=O)Cc1ccc(F)c(C(F)(F)F)c1)[C@H](C)c1nc2ncccn2c1-c1ccc(C#N)cc1` had a pIC50 in series [2] of 7.10.

The values above are taken from ChEMBL document CHEMBL1140806, “Optimization of the heterocyclic core of the quinazolinone-derived CXCR3 antagonists” (Bioorg Med Chem Lett, 2008).
